Entries after “also recorded” stand apart in the source; their conditions may differ. Like-named read-outs stand apart in the source and are kept apart here.

Usually pEC50 stands for the EC50 on a negative log10 scale, so that one unit is a factor of ten. In general, pCC50 refers to the CC50 on a negative log10 scale, so that one unit is a factor of ten. The term EC50 denotes the concentration giving half of the maximal effect. For orientation: CC50 means the concentration at which the toxic effect on the cells reaches its halfway point.

The subject of series [1] is P. falciparum 3D7 strain (chloroquine sensitive). The note with it: S3 File, continuous QSAR dataset; ref ChEMBL CHEMBL2366922 [25]; cited from earlier work.
In series [2] the test system is mouse embryonic fibroblasts (NIH/3T3 cell line). The following applies: S4 File, continuous QSAR dataset; ref ChEMBL CHEMBL614822 [25]; cited from earlier work.
Series [3] relates to P. falciparum W2 strain. Briefly: Antiplasmodial assay (SYBR Green), multi-drug-resistant strain. Format: cell-based, Plasmodium falciparum. The following applies: for EC50: Plasmodium falciparum, read-out: EC50 (PfW2); for SI^b: Selectivity index calculated by COS7 CC50/W2 EC50. On the procedure:
(§1) The 3D7 and W2 strains were cultured in RPMI 1640 medium supplemented with 0.05 mg/mL gentamycin, 38.4 mM HEPES, 0.2% sodium bicarbonate, and 10% O^+ human serum, as previously described in standardized protocol. Then, erythrocytes were added to the culture to obtain a 5% of hematocrit, and incubated at 37°C under 5% CO2 atmosphere, with daily exchange of medium. The parasitemia was monitored daily in smears, stained with Giemsa. Synchronic cultures in ring stage were obtained by two consecutive treatments, at 48h intervals with a 5% solution of D-sorbitol.
(§2) Parasites synchronized at the ring stage, with 0.5% parasitemia and 2% hematocrit, were distributed in the wells of a 96-well plate. The compounds were tested in triplicates using 12-point dilution series (0.019 μM– 40 μM) over 72h. Chloroquine and pyrimethamine were used as positive controls. The in vitro susceptibility of parasite to tested drugs was measured by SYBR Green according to Hartwig and colleagues. Briefly, 100 μL of lysis buffer (20 mM Tris, 5 mM EDTA, 0,008% wt/vol saponin, 0,08% vol/vol Triton X-100 and 0.4 μL/mL of SYBR Green) were added in each well of a new black 96-well plate and 100 μL of parasite culture incubated with drugs were transferred. After homogenization, the plates were incubated for 1h in the dark. Fluorescence was measured at 490 nm excitation and 540 nm emission (CLARIOstar, Labtech BMG).
(§3) The EC50 and CC50 values were calculated by plotting the Log doses vs. inhibition (expressed as a percentage relative to the control) in GraphPad Prism v.6 (GraphPad Software, La Jolla California USA, www.graphpad.com).

Series [4] deals with P. falciparum 3D7 strain. Briefly: Antiplasmodial assay (SYBR Green), sensitive strain. The following applies: for EC50: Plasmodium falciparum; for antiplasmodial activity (concentration range in words): asexual blood stages, 3D7 and W2 strains; for SI^a: Selectivity index calculated by COS7 CC50/3D7 EC50. Format: cell-based, Plasmodium falciparum. On the procedure: as §1, §2, §3

The nature of series [5]: Cytotoxicity assay (MTT reduction). Type of series: cell-based, monkey. The note with it: monkey, COS-7 cells (fibroblast-like monkey kidney cell line); 72 hours, mean ± SD of three independent assays. On the procedure: (§4) Cytotoxicity assays used fibroblast-like cell lines derived from monkey kidney tissue (COS7 cells), grown in DMEM medium supplemented with 10% fetal bovine serum and 0.05 mg/mL gentamicin in atmosphere containing 5% CO2 at 37°C. […] After an incubation period (72 hours), cell viability analysis was performed via the MMT reduction method (3- [4,5- dimethyl-thiazol-2-yl] -2,5-diphenyltetrazolium […]).
as §3

Series [6] concerns COS-7 cells. As to the kind of experiment: Cytotoxicity assay (MTT reduction). Type of series: cell-based, monkey. The note with it: in words. On the procedure:
as §4, §3

Setting [7] is: W2, asexual blood stage, 72h, mean ± SD of three independent assays.
Setting [8] is: 3D7, asexual blood stage, 72h, mean ± SD of three independent assays, read-out: EC50 (Pf3D7).
The mark [9] stands for this setting: 3D7, asexual blood stages of sensitive and multi-drug-resistant strains, read-out: EC50.

As to `Cc1ccc(-c2ccc(-c3ccc(C(=N)N)cc3)o2)cc1`, the pEC50 in series [1] is 10.24.

Regarding `CC1CCC2C(C)C(O)OC3OC4(C)CCC1C32OO4` (centres unmarked), the pEC50 in series [1] is 10.00.

In the case of `COc1ccc(-c2ccc(-c3ccc(C(=N)N)cc3)o2)cc1`, the pEC50 in series [1] is given as 9.86.

As to `Cn1cncc1C(O)C1=Cc2cccnc2C(N2CCN(C(=O)NC(C)(C)C)CC2)c2ccc(Cl)cc21` (centres unmarked), the pCC50 in series [2] is given as 9.30.

With `Cn1cncc1C(OCc1ccc(C#N)cc1C#Cc1ccccc1)c1ccc(C#N)cc1` (centres unmarked), in series [2], the pCC50 is given as 10.00.

In the case of `N=C(N)c1ccc(-c2ccc(-c3ccc(F)cc3)o2)cc1`, in series [1], the pEC50 is given as 11.02.

As to `CCN(CC)CCCC(C)Nc1ccnc2cc(Cl)ccc12` (centres unmarked) [Chloroquine, chloroquine, reference compound], the EC50 worked out at 173 ± 20 nM in series [3] (W2, 72 h) and 11 ± 1 nM in series [4] (3D7, 72 h, read-out: EC50 (Pf3D7)).

For the compound `CC1(C)NC(C2=NOC(C)(C)N2)=NO1` [LabMol-148], the CC50 at 72 h in series [5] is above 200000 nM. Further, the EC50 in series [3] (setting [7]) and in series [4] (setting [8]) was above 40000 nM each time.

`Oc1ccccc1C1N=C(c2ccccc2)N=C(c2ccccc2)N1` (centres unmarked) [LabMol-149, 2-(4,6-diphenyl-1,2-dihydro-1,3,5-triazin-2-yl)phenol]: the CC50 at 72 h in series [5] is above 100000 nM. In series [6], the “cytotoxicity in mammalian cells” value is “low cytotoxicity”. The EC50 in series [3] (setting [7]) is 509 ± 177 nM; in series [4] (setting [8]) it was 1450 ± 524 nM; in series [4] (setting [9]) it was below 500 nM. In series [3], the “SI^b” value is reported as above 196. Also, the “antiplasmodial activity (concentration range in words)” value (“antiplasmodial activity” below) in series [4] is “submicromolar and low nanomolar range; also recorded: activity at submicromolar concentrations”.

As for `Nc1cc(N)nc(N2CCOCC2)n1` [LabMol-150], the CC50 at 72 h in series [5] is above 200000 nM. The EC50 in series [3] (setting [7]) and in series [4] (setting [8]) was above 40000 nM in each case.

In series [5], `CC(=O)N(C1=C(N2CCOCC2)C(=O)c2ccccc2C1=O)c1ccc(C(=O)O)cc1` [LabMol-151, 4-{N-[3-(morpholin-4-yl)-1,4-dioxo-1,4-dihydronaphthalen-2-yl]acetamido}benzoic acid] gave a CC50 at 72 h of 141000 ± 11200 nM. For the same compound, in series [6], the “cytotoxicity in mammalian cells” value was “low cytotoxicity”. The EC50 in series [3] (setting [7]) was 1620 ± 321 nM; in series [4] (setting [8]), 1910 ± 292 nM. Besides, in series [3], the “SI^b” value is 87.1. The “SI^a” value in series [4] is 73.7. The “antiplasmodial activity” value in series [4] is “submicromolar and low nanomolar range; also recorded: activity at submicromolar concentrations”.

Regarding `Fc1cccc(Nc2nc(NCC3CCCO3)c3ccccc3n2)c1` (centres unmarked) [LabMol-152, N2-(3-fluorophenyl)-N4-[(oxolan-2-yl)methyl]quinazoline-2,4-diamine], the CC50 at 72 h in series [5] amounted to 16700 ± 10300 nM. In addition, the “cytotoxicity in mammalian cells” value in series [6] was “low cytotoxicity”. For the same compound, the EC50 in series [3] (setting [7]) is 78 ± 14 nM; in series [4] (setting [8]), 49 ± 29 nM; in series [4] (setting [9]), below 500 nM. In addition, the “SI^b” value in series [3] is recorded as 214.1. In addition, in series [4], the “SI^a” value is given as 340.8. For the same compound, the “antiplasmodial activity” value in series [4] was “submicromolar and low nanomolar range”.

With `CCc1nc(N)nc(N)c1-c1ccc(Cl)cc1` [Pyrimethamine, pyrimethamine, reference compound], the CC50 at 72 h in series [5] was above 100000 nM. Moreover, the EC50 in series [3] (setting [7]) was 18200 ± 4540 nM; in series [4] (setting [8]), 37 ± 7 nM. The “SI^b” value in series [3] was 5.5. Also, the “SI^a” value in series [4] is 2,702.

(Values after publication PMC7048302, “Deep Learning-driven research for drug discovery: Tackling Malaria” (PLoS Computational Biology, 2020).)
